Assay results taken from patent US10758623B2, “Pharmaceutically active agent complexes, polymer complexes, and compositions and methods involving the same” (Durect Corporation, priority 2013, dated 2020).
Where two headings read alike, the source gives them in different places. Values belong to the compound of their own block, whether it stands above or below them.

Legend:
Type in all cases: physicochemical
[1] = Stability following exposure to gamma radiation, RPLC purity (Example 30)
Text: The APIs were mixed with the complexable polymers at a ratio of 1:1, 1:4 or 1:10. The instantaneous precipitation was separated from reaction media (ammonium bicarbonate in water) and dried via lyophilization. The dried powder or the dried powder suspended in Benzyl Benzoate were loaded either in glass vial or plastic syringes (Intervene) and packed in aluminum pouches. These samples were exposed to gamma radiation (12.5 kGy-17.5 kGy) for more than 8 hrs at room temperature with radiation indicator sticker (Sterigenics, Corona, Calif.). These gamma irradiated samples were then analyzed for purity using reverse phase liquid chromatography (RPLC) in reference to non-gamma irradiated samples.

[2] = In vitro dissolution of decitabine and azacytidine from amine functionalized copolymer complex (Example 12); settings: complex with amine functionalized copolymer (Example 2H); PBS pH 7.4, 37° C.; FIG. 7
Procedure: 1.00 g of decitabine or azacytidine powder was placed in a 150 mL wide-mouth glass jar. 100 mL of 50 mM NH4HCO3 solution were added, and the mixture was stirred at 400 rpm for 30 min at room temperature (until it became a visibly clear solution).
100 mL of a 10 mg/mL solution of functionalized complexation polymer were then prepared by stirring 1.00 g of polymer in 100 mL of MilliQ water at 400 rpm (until it became a clear solution).
(§1) The decitabine or azacytidine solution was combined with the complexation polymer solution at specific ratios as set forth below and monitored for precipitation. The combined materials were stirred for 30 min and then centrifuged in 50 mL Falcon™ tubes. The supernatant solution was removed for HPLC analysis to determine the quantity of free pharmaceutically active agent (not complexed). The resultant precipitate was resuspended in 50-100 mL of 50 mM NH4HCO3 solution and lyophilized according to the method described in Example 3.
Lyophilized complex powder was suspended in 1 mL ammonium bicarbonate (50 mM).
For dissolution or in vitro release testing, PBS (Phosphate buffered saline) pH˜7.4 was used as the medium, and the complexed powder was dispersed into the dissolution medium. […] The amount of decitabine or azacytidine in solution at each time point was determined by HPLC.

[3] = Attempted complexation of risperidone with carboxylate-functionalized 50:50 copolymer (Example 10); settings: reaction mixture at pH ~5
Procedure: Dissolution experiments were conducted as set forth below to determine the in vitro release from a mixture of risperidone and a carboxylate-functionalized 50:50 copolymer prepared as described in Example 2E. […] This observation is mainly due to the limited solubilities of risperidone and the copolymer in the reaction mixture at pH˜5.
1.00 g of a risperidone powder was placed in a 150 mL wide-mouth glass jar. 100 mL of 50 mM NH4COOCH3 solution were added, and the mixture was stirred at 400 rpm for 30 min at room temperature (until it became a visibly clear solution).
100 mL of a 10 mg/mL solution of functionalized polymer were then prepared by stirring 1.00 g of polymer in 100 mL of MilliQ water at 400 rpm (until it became a clear solution).
as §1, with “pharmaceutically active agent” for “decitabine or azacytidine”, “the” for “the complexation”, “precipitated).” for “complexed).”, “NH4COOCH3” for “NH4HCO3”

stability after 15 kGy gamma irradiation, non-complexed API ([1]; RPLC, relative to the complexed APIs, with a corresponding reduction in potency): degraded faster
Compound: CCCCCCCCCCCCCCCC(=O)N[C@@H](CCC(=O)NCCCC[C@H](NC(=O)[C@H](C)NC(=O)[C@H](C)NC(=O)[C@H](CCC(N)=O)NC(=O)CNC(=O)[C@H](CCC(=O)O)NC(=O)[C@H](CC(C)C)NC(=O)[C@H](Cc1ccc(O)cc1)NC(=O)[C@H](CO)NC(=O)[C@H](CO)NC(=O)[C@@H](NC(=O)[C@H](CC(=O)O)NC(=O)[C@H](CO)NC(=O)[C@@H](NC(=O)[C@H](Cc1ccccc1)NC(=O)[C@@H](NC(=O)CNC(=O)[C@H](CCC(=O)O)NC(=O)[C@H](C)NC(=O)[C@@H](N)Cc1cnc[nH]1)[C@@H](C)O)[C@@H](C)O)C(C)C)C(=O)N[C@@H](CCC(=O)O)C(=O)N[C@@H](Cc1ccccc1)C(=O)N[C@H](C(=O)N[C@@H](C)C(=O)N[C@@H](Cc1c[nH]c2ccccc12)C(=O)N[C@@H](CC(C)C)C(=O)N[C@H](C(=O)N[C@@H](CCCNC(=N)N)C(=O)NCC(=O)N[C@@H](CCCNC(=N)N)C(=O)NCC(=O)O)C(C)C)[C@@H](C)CC)C(=O)O [Liraglutide]

Compound: Nc1ncn([C@@H]2O[C@H](CO)[C@@H](O)[C@H]2O)c(=O)n1 [azacytidine]
stability under the tested dissolution conditions [2]: significantly degraded

Compound: Cc1nc2n(c(=O)c1CCN1CCC(c3noc4cc(F)ccc34)CC1)CCCC2 [risperidone]
complexation outcome with carboxylate-functionalized 50:50 copolymer (Example 2E) [3]: precipitated separately

Compound: HGH: Human Growth Hormone (Biosolutions)
stability after 15 kGy gamma irradiation, non-complexed API [1]: degraded faster
